Test results published in patent US20260015451A1, “FOAMED-RESIN-FORMABLE COMPOSITION, POLYUREA-BASED RESIN FOAM BODY, AND POLYUREA-BASED RESIN FOAM BODY PRODUCTION METHOD” (MITSUBISHI GAS CHEMICAL COMPANY, INC., priority 2022, published 2026).

Legend:
[1] = Maximum carbon dioxide (CO2) release temperature by DSC; type: physicochemical; conditions: after 24 hours in air at 23° C. and 50% RH; heating rate 10° C./minute, nitrogen
Protocol: A carbon dioxide detector and a Petri dish were placed in an openable desiccator (inner dimension: 370 mm × 260 mm × 272 mm). Subsequently, the cyclic polyamine compound (5 mmol) was added to the Petri dish in the desiccator and the door was immediately closed to leave the cyclic polyamine compound to stand in the desiccator in an air environment at 23° C. and 50% RH for 24 hours. The initial concentration of carbon dioxide was adjusted to about 400 ppm.
Then the cyclic polyamine compound was taken out of the desiccator to give a cyclic polyamine compound with carbon dioxide absorbed. The maximum carbon dioxide release temperature of the cyclic polyamine compound with carbon dioxide absorbed was measured by subjecting the cyclic polyamine compound to DSC as described below. First, differential scanning calorimetry of the cyclic polyamine compound was performed under conditions of a temperature range of 23 to 250° C., a heating rate of 10° C./minute and a nitrogen atmosphere using a differential thermogravimeter (product name DTG-60 made by Shimadzu Corporation). The temperature at which the amount of heat absorbed due to the desorption of carbon dioxide was the maximum was calculated from the DSC curve obtained, and the temperature was determined as the maximum carbon dioxide release temperature of the cyclic polyamine compound.

[2] = Percentage increase of mass after standing in air (absorption of carbon dioxide); type: physicochemical; conditions: air environment at 23° C. and 50% RH for a week
Protocol: A cyclic polyamine compound, MXDA, was put in a container and left to stand in an air environment at 23° C. and 50% RH for a week. By doing so, MXDA and carbon dioxide in the air were reacted to give a reaction product of MXDA and carbon dioxide (carbonate of MXDA). At that stage, to suppress uneven reaction, the container in which the cyclic polyamine compound was placed was shaken as necessary so as not to leave unreacted MXDA. The water content in the resulting reaction product (carbonate of MXDA) was 0% by mass.
Next, the amount of increase of the mass of MXDA was measured, and the percentage increase of the mass of the cyclic polyamine compound was calculated by the following equation.
Percentage increase of mass of cyclic polyamine compound [% by mass]=100×amount of increase of mass of cyclic polyamine compound (g)/(initial mass of cyclic polyamine compound (g)[…])

For `NCc1cccc(CN)c1` [MXDA, metaxylylenediamine], which “maximum carbon dioxide (CO2) release temperature” value [1] is on record?
Its value is 135.5 °C.

And the “percentage increase of the mass” value [2]?
Its value is 24.1 % by mass.
